Source: PubChem BioAssay (NCI)
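Cells were grown in 96-well plates and exposed to each compound for 48 hours at five concentrations; endpoints were interpolated linearly between bracketing concentrations, or set to the highest concentration if not reached. The concentration for 50% growth inhibition is given as GI50. At the TGI there is no net growth.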

How the values were obtained:
Assay in all cases: NCI anticancer screen, dose series, 48 h
[1] = system: 786-0 renal
[2] = system: A549 NSCLC
[3] = system: ACHN renal
[4] = system: BT-549 breast
[5] = system: CAKI-1 renal
[6] = system: COLO 205 colon
[7] = system: DU-145 prostate
[8] = system: EKVX NSCLC
[9] = system: HCC-2998 colon
[10] = system: HCT-116 colon
[11] = system: HCT-15 colon
[12] = system: HL-60(TB) leukemia
[13] = system: HOP-62 NSCLC
[14] = system: HOP-92 NSCLC
[15] = system: HS 578T breast
[16] = system: HT29 colon
[17] = system: IGROV1 ovarian
[18] = system: K-562 leukemia
[19] = system: KM12 colon
[20] = system: LOX IMVI melanoma
[21] = system: M14 melanoma
[22] = system: MCF7 breast
[23] = system: MDA-MB-231 breast
[24] = system: MDA-MB-435
[25] = system: MOLT-4 leukemia
[26] = system: NCI-H226 lung
[27] = system: NCI-H23 lung
[28] = system: NCI-H460 lung
[29] = system: NCI-H522 lung
[30] = system: NCI/ADR-RES ovarian
[31] = system: OVCAR-3 ovarian
[32] = system: OVCAR-4 ovarian
[33] = system: OVCAR-5 ovarian
[34] = system: OVCAR-8 ovarian
[35] = system: PC-3 prostate
[36] = system: RPMI-8226 leukemia
[37] = system: RXF 393 renal
[38] = system: SF-268 CNS
[39] = system: SF-295 CNS
[40] = system: SF-539 CNS
[41] = system: SK-MEL-2 melanoma
[42] = system: SK-MEL-28 melanoma
[43] = system: SK-MEL-5 melanoma
[44] = system: SK-OV-3 ovarian
[45] = system: SN12C renal
[46] = system: SNB-19 CNS
[47] = system: SNB-75 CNS
[48] = system: SR leukemia
[49] = system: SW-620 colon
[50] = system: T-47D breast
[51] = system: TK-10 renal
[52] = system: U251 CNS
[53] = system: UACC-257 melanoma
[54] = system: UACC-62 melanoma
[55] = system: UO-31 renal

COC(=O)C1=C(OC(=O)c2ccccc2)C(C(=O)OC)[C@]2(O)[C@@H](C(=O)OC)C1CC(c1ccccc1OC)[C@@H]2C(=O)OC (stereo not given in full) was tested, and the GI50 [1] was 30.8 µM, the TGI [1] was > 100 µM and the GI50 [2] was 12.9 µM. The TGI [2] was 77.9 µM, the GI50 [3] was 41.9 µM and the TGI [3] was > 100 µM. For the same compound, the GI50 [4] was 5.58 µM, the TGI [4] was 83.6 µM and the GI50 [5] was 3.99 µM. The TGI [5] was > 100 µM, the GI50 [6] was 15.5 µM and the TGI [6] was > 100 µM. For the same compound, the GI50 [7] was 5.51 µM, the TGI [7] was > 100 µM and the GI50 [8] was 4.02 µM. The TGI [8] was 35.3 µM, the GI50 [9] was 17.6 µM and the TGI [9] was 34.1 µM. For the same compound, the GI50 [10] was 13.9 µM, the TGI [10] was 52.8 µM and the GI50 [11] was 30.1 µM. For the same compound, the TGI [11] was > 100 µM, the GI50 [12] was 14.7 µM and the TGI [12] was 67.1 µM. For the same compound, the GI50 [13] was 38.3 µM, the TGI [13] was > 100 µM and the GI50 [14] was 2.69 µM. For the same compound, the TGI [14] was 31 µM, the GI50 [15] was 5.98 µM and the TGI [15] was 83.4 µM. For the same compound, the GI50 [16] was 22.2 µM, the TGI [16] was > 100 µM and the GI50 [17] was 44.5 µM. For the same compound, the TGI [17] was > 100 µM, the GI50 [18] was 17.6 µM and the TGI [18] was > 100 µM. For the same compound, the GI50 [19] was 7.9 µM, the TGI [19] was > 100 µM and the GI50 [20] was 39.2 µM. For the same compound, the TGI [20] was > 100 µM, the GI50 [21] was 18.6 µM and the TGI [21] was 50.8 µM. The GI50 [22] was 77.5 µM, the TGI [22] was > 100 µM and the GI50 [23] was 14.7 µM. It also gave a TGI [23] of 60.2 µM, a GI50 [24] of 1.89 µM and a TGI [24] of 4.4 µM. For the same compound, the GI50 [25] was 5.52 µM, the TGI [25] was 37.8 µM and the GI50 [26] was 15.2 µM. For the same compound, the TGI [26] was 80.7 µM, the GI50 [27] was 24.2 µM and the TGI [27] was 72.7 µM. The GI50 [28] was 50.9 µM, the TGI [28] was > 100 µM and the GI50 [29] was 8.93 µM. For the same compound, the TGI [29] was > 100 µM, the GI50 [30] was 21 µM and the TGI [30] was 55.5 µM. The GI50 [31] was 2.55 µM, the TGI [31] was > 100 µM and the GI50 [32] was 4.75 µM. For the same compound, the TGI [32] was > 100 µM, the GI50 [33] was 41.5 µM and the TGI [33] was > 100 µM. For the same compound, the GI50 [34] was 18.4 µM, the TGI [34] was > 100 µM and the GI50 [35] was 9.08 µM. It also gave a TGI [35] of 69.2 µM, a GI50 [36] of 6.17 µM and a TGI [36] of 38.2 µM. For the same compound, the GI50 [37] was 2.53 µM, the TGI [37] was 8.65 µM and the GI50 [38] was > 100 µM. For the same compound, the TGI [38] was > 100 µM, the GI50 [39] was 5.41 µM and the TGI [39] was > 100 µM. The GI50 [40] was 3.45 µM, the TGI [40] was 10.8 µM and the GI50 [41] was 36.2 µM. The TGI [41] was > 100 µM, the GI50 [42] was 23.2 µM and the TGI [42] was > 100 µM. It also gave a GI50 [43] of 4.09 µM, a TGI [43] of 20.5 µM and a GI50 [44] of 5.62 µM. The TGI [44] was > 100 µM, the GI50 [45] was 10.2 µM and the TGI [45] was 51.5 µM. The GI50 [46] was 25.1 µM, the TGI [46] was > 100 µM and the GI50 [47] was 10.7 µM. For the same compound, the TGI [47] was > 100 µM, the GI50 [48] was 1.54 µM and the TGI [48] was 5.16 µM. The GI50 [49] was 15.3 µM, the TGI [49] was > 100 µM and the GI50 [50] was 22 µM. For the same compound, the TGI [50] was > 100 µM, the GI50 [51] was 26.5 µM and the TGI [51] was > 100 µM. The GI50 [52] was 37.9 µM, the TGI [52] was > 100 µM and the GI50 [53] was 5.37 µM. The TGI [53] was 34.8 µM, the GI50 [54] was 4.59 µM and the TGI [54] was 23.2 µM. It also gave a GI50 [55] of 13.9 µM and a TGI [55] of 50.5 µM.
